Data reported in patent publication US4632932A, “Antimycotic agents” (Bayer Aktiengesellschaft, priority 1982, dated 1986).

Experiments:
[1] = system: dermatophytes, moulds and yeasts; assay: Antimycotic in vitro activity, series dilution test, overall comparison; format: cell-based
Protocol: (§1) Description of the experiment:
(§2) The in vitro tests were carried out in a series dilution test with germ inocula of an average of 5×10^4 germs/ml of substrate. The nutrient medium was (a) for dermatophytes and moulds: Sabourand's milieu d'epreuve and (b) for yeasts: meat extract/glucose broth.
(§3) The incubation temperature was 20° C. and the duration of incubation was 24 to 96 hours in the case of yeasts and 96 hours in the case of dermatophytes and moulds.

Candida cells = assay: Antimycotic in vivo activity (oral) in candidosis of mice; design: species or system Mice of the SPF-CF1 type; conditions: 50-100 mg/kg
Protocol: Description of the experiment
Mice of the SPF-CF1 type were infected intravenously with 1-2×10^6 logarithmically growing Candida cells, which are suspended in physiological sodium chloride solution. The animals were treated orally one hour before and seven hours after the infection, with, in each case, 50-100 mg/kg of body weight of the formulations.
Untreated animals died 3 to 6 days after infection. The survival rate on the 6th day after infection was about 5% in the case of untreated control animals.

[2] = system: trichophyton of mentagrophytes; assay: Antimicrobial in vivo activity (local) in the model of experimental guinea-pig trichophytosis; conditions: once daily, 15% strength solution
Trichophyton mentagr. = assay: Antimycotic in vitro activity, series dilution test (MIC), Trichophyton mentagr.; format: cell-based; design: unit not given here; conditions: Sabourand's milieu d'epreuve, 20° C., 96 hours
Protocol: as §1, §2, §3

Microsporum canis = assay: Antimycotic in vitro activity, series dilution test (MIC), Microsporum canis; format: cell-based; design: unit not given here; conditions: Sabourand's milieu d'epreuve, 20° C., 96 hours
Protocol: as §1, §2, §3

Candida albicans = assay: Antimycotic in vitro activity, series dilution test (MIC), Candida albicans; format: cell-based; design: unit not given here; conditions: meat extract/glucose broth, 20° C., 24 to 96 hours
Protocol: as §1, §2, §3

Torulopsis glabrata = assay: Antimycotic in vitro activity, series dilution test (MIC), Torulopsis glabrata; format: cell-based; design: unit not given here; conditions: meat extract/glucose broth, 20° C., 24 to 96 hours
Protocol: as §1, §2, §3

Aspergillus fumigatus = assay: Antimycotic in vitro activity, series dilution test (MIC), Aspergillus fumigatus; format: cell-based; design: unit not given here; conditions: Sabourand's milieu d'epreuve, 20° C., 96 hours
Protocol: as §1, §2, §3

Compound	antimycotic action in vitro compared with compounds (A), (B), (C) and (D) [1]	action compared with compounds (A), (B), (C) and (D) (Candida cells)	action (statement in words) [2]	also measured
CC(C)(C1OCCO1)C(O)(C=Cc1ccc(Cl)cc1Cl)Cn1cncn1 (stereo not shown) [Example 11]	better antimycotic action	–	–	–
CC(C)(C1OCCO1)C(O)(CCc1ccc(Cl)cc1Cl)Cn1cncn1 (stereo not shown) [Example 5, 1-(2,4-dichlorophenyl)-4-(1,3-dioxolan-2-yl)-4-methyl-3-(1,2,4-triazol-1-yl-methyl)-pentan-3-ol naphthalene-1,5-disulphonate]	better antimycotic action	–	–	–
CC(C)(C1OCCO1)C(O)(Cn1cncn1)c1ccc(Cl)cc1 (stereo not shown) [Example 3, 3-(1,3-dioxolan-2-yl)-2-(4-chlorophenyl)-3-methyl-1-(1,2,4-triazol-1-yl)-butan-2-ol]	better antimycotic action	better action	–	–
CC(C)(C1OCCO1)C(O)(C=Cc1ccc(Cl)cc1)Cn1ccnc1 (stereo not shown) [Example 23]	better antimycotic action	better action	an action or a good action	–
CC1(C(O)(COc2ccc(Cl)cc2)Cn2ccnc2)COCOC1 (stereo not shown) [Example 26]	–	better action	–	–
CC(C)(C1OCCO1)C(O)(CCc1ccc(Cl)cc1)Cn1ccnc1 (stereo not shown) [Example 19]	better antimycotic action	better action	an action or a good action	–
CC(C)(C1OCCO1)C(O)(CCc1ccc(Cl)cc1Cl)Cn1ccnc1 (stereo not shown) [Example 20]	better antimycotic action	better action	an action or a good action	–
1-(2-methylphenoxy)-3,3-dimethyl-2-(imidazol-1-yl-methyl)-2-butanol [(B)]	–	–	–	MIC values (Trichophyton mentagr.): 4; MIC values (Microsporum canis): 4; MIC values (Candida albicans): 32; MIC values (Torulopsis glabrata): > 64; MIC values (Aspergillus fumigatus): 32
CC(C)(C1OCCO1)C(O)(C=Cc1ccc(Cl)cc1)Cn1cncn1 (stereo not shown) [Example 10]	better antimycotic action	better action	an action or a good action	–
CC(C)(C1OCCO1)C(O)(CCc1ccc(Cl)cc1)Cn1cncn1 (stereo not shown) [Example 7]	better antimycotic action	better action	an action or a good action	–
CC1(C(O)(CCc2ccc(Cl)cc2)Cn2cncn2)COCOC1 (stereo not shown) [Example 9]	better antimycotic action	better action	an action or a good action	–
CC(C)(C1OCCO1)C(O)(COc1ccc(Cl)cc1)Cn1cncn1 (stereo not shown) [Example 15]	better antimycotic action	better action	–	–
CC(C)(C1OCCO1)C(O)(COc1ccc(-c2ccccc2)cc1)Cn1cncn1 (stereo not shown) [Example 14]	better antimycotic action	better action	an action or a good action	–
1-(2-methylphenoxy)-3,3-dimethyl-2-(1,2,4-triazol-1-yl-methyl)-2-butanol [(C)]	–	–	–	MIC values (Trichophyton mentagr.): 32; MIC values (Candida albicans): 32; MIC values (Torulopsis glabrata): > 64; MIC values (Aspergillus fumigatus): > 64
CC1(C(O)(CCc2ccc(Cl)cc2)Cn2ccnc2)COCOC1 (stereo not shown) [Example 22]	–	better action	an action or a good action	–
CC1(C(O)(CCc2ccc(Cl)cc2Cl)Cn2cncn2)COCOC1 (stereo not shown) [Example 8]	better antimycotic action	better action	an action or a good action	–
CC1(C(O)(C=Cc2ccc(Cl)cc2)Cn2cncn2)COCOC1 (stereo not shown) [Example 12]	better antimycotic action	–	–	–
CC1(C(O)(C=Cc2ccc(Cl)cc2)Cn2cncn2)COCOC1 (stereo not shown) [Example 13]	better antimycotic action	–	–	–
CC1(C(O)(CCc2ccc(Cl)cc2Cl)Cn2ccnc2)COCOC1 (stereo not shown) [Example 21]	better antimycotic action	better action	an action or a good action	–
CC1(C(O)(COc2ccc(Cl)cc2)Cn2cncn2)COCOC1 (stereo not shown) [Example 16]	better antimycotic action	better action	–	–
